Assay results as given in patent US6552083B1, “Agents inhibiting chronic rejection reactions after organ transplantation” (Kissei Pharmaceutical Co., Ltd., priority 1999, dated 2003).

Legend:
[1] = test system: coronary arteries of transplanted heart; test: Test for confirming inhibitory activity against intimal thickening in transplant organ after organ transplantation (mouse heart transplantation model); format: in vivo, mice (DBA/2 donor, B10D2 recipient)
From the text: (§1) In a transplantation test, 4 to 6-week-old DBA/2 male mice each weighing 20 to 25 g (available from Charles River Laboratories) were used an donor animals, and 4 to 6-week-old B10D2 male mice each weighing 20 to 25 g (ava from Charles River Laboratories) were used as recipient animals. From three days before testing, mice in a control group were fed on a standard diet, and mice in a drug-treated group were given a 0.25% or 0.5% tranilast-containing diet (CE-2). On the day of testing, the heart was excised from a donor mouse and transplanted into the abdomen of a recipient mouse in accordance with the procedures described in the literature (Science, vol. 255, pp. 1125-1127 (1992)). Fourteen and twenty-eight days from the transplantation, the transplanted heart was excised and placed in formalin. Three specimens (thickness: […]) were sliced from different sites of the excised heart. Each slice was stained with Elastica van Geison stain, and the coronary arteries were observed under a microscope to calculate a vascular stenosis ratio according to the following equation: Vascular stenosis ratio (%)=[(area inside of elastica −lumen area)/area inside of elastica]×100

transplanted heart = test: Test for evaluating rejection in transplant organ after organ transplantation (infiltration of lymphocytes into the tissue); format: in vivo, mice (DBA/2 donor, B10D2 recipient)
From the text: as §1, with “The degree” for “Vascular stenosis ratio (%)=[(area inside”, “rejection in the hearts transplanted to and excited from the recipient mice in the same manner as in Example 1 was evaluated in terms” for “elastica −lumen area)/area inside”, “the degree of infiltration of lymphocytes into the tissue in accordance with the Working Formation of the International Society for Heart and Lung Transplantation and with the following criteria. 0 . . . No infiltration of lymphocytes into the tissue was seen. 1 . . . Slight infiltration of lymphocytes into the tissue was observed. 2 . . . Medium infiltration of lymphocytes into the tissue was observed. 3 . . . Severe infiltration of lymphocytes into the tissue was observed.” for “elastica]×100”

[2] = 0.25% or 0.5% tranilast-containing diet, mouse heart transplantation

COc1ccc(/C=C/C(=O)Nc2ccccc2C(=O)O)cc1OC [Tranilast, N-(3,4-dimethoxycinnamoyl)anthranililc acid]
Inhibition of vascular thickening in a transplanted heart (result in words) [1, 2]: dose-dependently significantly inhibits vascular thickening in a transplanted heart | Vascular Stenosis Ratio (%) ([1]; 0.25% tranilast-containing feed from 3 days before transplantation, 14-days post-operation, control group 70.3): 55.5% | Vascular Stenosis Ratio (%) ([1]; 0.25% tranilast-containing feed, 28-days post-operation, control group 73.3): 61.9% | Vascular Stenosis Ratio (%) ([1]; 0.5% tranilast-containing feed, 14-days post-operation, control group 70.3): 45.5% | Vascular Stenosis Ratio (%) ([1]; 0.5% tranilast-containing feed, 28-days post-operation, control group 73.3): 47.7% | Infiltration of lymphocytes into the tissue (result in words) (transplanted heart; [2]): alleviates infiltration of lymphocytes into the tissue | Degree of rejection (transplanted heart; score 0 (no) to 3 (severe) lymphocyte infiltration, 0.25% tranilast-containing feed, 14-days post-operation, control group 2.07): 1.70 | Degree of rejection (transplanted heart; score 0 to 3, 0.25% tranilast-containing feed, 28-days post-operation, control group 2.88): 2.38 | Degree of rejection (transplanted heart; score 0 to 3, 0.5% tranilast-containing feed, 14-days post-operation, control group 2.07): 1.80 | Degree of rejection (transplanted heart; score 0 to 3, 0.5% tranilast-containing feed, 28-days post-operation, control group 2.88): 2.08
